Laboratory results from PubChem BioAssay (NCI).
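Interpolation was linear, between the two tested concentrations surrounding the appropriate level; five concentrations were tested over 48 hours in 96-well plates. The concentration for full growth arrest is given as TGI.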

Columns and labels:
Assay in all cases: NCI-60 cell line screen, 48 h
786-0 renal = system: 786-0 renal
A498 renal = system: A498 renal
A549 NSCLC = system: A549 NSCLC
ACHN renal = system: ACHN renal
BT-549 breast = system: BT-549 breast
CAKI-1 renal = system: CAKI-1 renal
CCRF-CEM leukemia = system: CCRF-CEM leukemia
COLO 205 colon = system: COLO 205 colon
DU-145 prostate = system: DU-145 prostate
EKVX NSCLC = system: EKVX NSCLC
HCC-2998 colon = system: HCC-2998 colon
HCT-116 colon = system: HCT-116 colon
HCT-15 colon = system: HCT-15 colon
HL-60(TB) leukemia = system: HL-60(TB) leukemia
HOP-62 NSCLC = system: HOP-62 NSCLC
HOP-92 NSCLC = system: HOP-92 NSCLC
HS 578T breast = system: HS 578T breast
HT29 colon = system: HT29 colon
IGROV1 ovarian = system: IGROV1 ovarian
K-562 leukemia = system: K-562 leukemia
KM12 colon = system: KM12 colon
LOX IMVI melanoma = system: LOX IMVI melanoma
M14 melanoma = system: M14 melanoma
MALME-3M melanoma = system: MALME-3M melanoma
MCF7 breast = system: MCF7 breast
MDA-MB-231 breast = system: MDA-MB-231 breast
MDA-MB-435 = system: MDA-MB-435
MDA-N = system: MDA-N
MOLT-4 leukemia = system: MOLT-4 leukemia
NCI-H226 lung = system: NCI-H226 lung
NCI-H23 lung = system: NCI-H23 lung
NCI-H460 lung = system: NCI-H460 lung
NCI-H522 lung = system: NCI-H522 lung
NCI/ADR-RES ovarian = system: NCI/ADR-RES ovarian
OVCAR-3 ovarian = system: OVCAR-3 ovarian
OVCAR-4 ovarian = system: OVCAR-4 ovarian
OVCAR-5 ovarian = system: OVCAR-5 ovarian
OVCAR-8 ovarian = system: OVCAR-8 ovarian
PC-3 prostate = system: PC-3 prostate
RPMI-8226 leukemia = system: RPMI-8226 leukemia
RXF 393 renal = system: RXF 393 renal
SF-268 CNS = system: SF-268 CNS
SF-295 CNS = system: SF-295 CNS
SF-539 CNS = system: SF-539 CNS
SK-MEL-2 melanoma = system: SK-MEL-2 melanoma
SK-MEL-28 melanoma = system: SK-MEL-28 melanoma
SK-MEL-5 melanoma = system: SK-MEL-5 melanoma
SK-OV-3 ovarian = system: SK-OV-3 ovarian
SN12C renal = system: SN12C renal
SNB-19 CNS = system: SNB-19 CNS
SNB-75 CNS = system: SNB-75 CNS
SR leukemia = system: SR leukemia
SW-620 colon = system: SW-620 colon
T-47D breast = system: T-47D breast
TK-10 renal = system: TK-10 renal
U251 CNS = system: U251 CNS
UACC-257 melanoma = system: UACC-257 melanoma
UACC-62 melanoma = system: UACC-62 melanoma
UO-31 renal = system: UO-31 renal

**Q.** Which TGI (786-0 renal) does the source give for CC(=O)NCCC1CN(C(=O)/C=C\I)c2ccccc21 (centres undefined) here?
**A.** 24.7 µM

**Q.** What about the TGI (A498 renal) of the same compound?
**A.** 41.7 µM

**Q.** What about the TGI (A549 NSCLC) of the same compound?
**A.** 31.4 µM

**Q.** What about the TGI (ACHN renal) of the same compound?
**A.** 28.5 µM

**Q.** And the TGI (BT-549 breast)?
**A.** 38.2 µM

**Q.** And the TGI (CAKI-1 renal)?
**A.** 3.32 µM

**Q.** And the TGI (CCRF-CEM leukemia)?
**A.** 13.3 µM

**Q.** And the TGI (COLO 205 colon)?
**A.** 23.9 µM

**Q.** What about the TGI (DU-145 prostate) of the same compound?
**A.** 33.1 µM

**Q.** And the TGI (EKVX NSCLC)?
**A.** 34 µM

**Q.** And the TGI (HCC-2998 colon)?
**A.** 28.5 µM

**Q.** And the TGI (HCT-116 colon)?
**A.** 28.8 µM

**Q.** What about the TGI (HCT-15 colon) of the same compound?
**A.** 22.1 µM

**Q.** And the TGI (HL-60(TB) leukemia)?
**A.** 8.49 µM

**Q.** What about the TGI (HOP-62 NSCLC) of the same compound?
**A.** 23.3 µM

**Q.** And the TGI (HOP-92 NSCLC)?
**A.** 46.3 µM

**Q.** What about the TGI (HS 578T breast) of the same compound?
**A.** 67.6 µM

**Q.** And the TGI (HT29 colon)?
**A.** 24 µM

**Q.** What about the TGI (IGROV1 ovarian) of the same compound?
**A.** 28.4 µM

**Q.** And the TGI (K-562 leukemia)?
**A.** > 40.3 µM

**Q.** What about the TGI (KM12 colon) of the same compound?
**A.** 18.7 µM

**Q.** And the TGI (LOX IMVI melanoma)?
**A.** 11.1 µM

**Q.** What about the TGI (M14 melanoma) of the same compound?
**A.** 24 µM

**Q.** And the TGI (MALME-3M melanoma)?
**A.** 28.5 µM

**Q.** And the TGI (MCF7 breast)?
**A.** 13.4 µM

**Q.** And the TGI (MDA-MB-231 breast)?
**A.** 8.14 µM

**Q.** What about the TGI (MDA-MB-435) of the same compound?
**A.** 30.8 µM

**Q.** What about the TGI (MDA-N) of the same compound?
**A.** 26.3 µM

**Q.** And the TGI (MOLT-4 leukemia)?
**A.** 13.7 µM

**Q.** What about the TGI (NCI-H226 lung) of the same compound?
**A.** 27.6 µM

**Q.** And the TGI (NCI-H23 lung)?
**A.** 35.2 µM

**Q.** And the TGI (NCI-H460 lung)?
**A.** 22.3 µM

**Q.** What about the TGI (NCI-H522 lung) of the same compound?
**A.** 3.29 µM

**Q.** What about the TGI (NCI/ADR-RES ovarian) of the same compound?
**A.** > 61.7 µM

**Q.** And the TGI (OVCAR-3 ovarian)?
**A.** 28.2 µM

**Q.** And the TGI (OVCAR-4 ovarian)?
**A.** 39 µM

**Q.** What about the TGI (OVCAR-5 ovarian) of the same compound?
**A.** 30.2 µM

**Q.** And the TGI (OVCAR-8 ovarian)?
**A.** 35.8 µM

**Q.** And the TGI (PC-3 prostate)?
**A.** 24 µM

**Q.** What about the TGI (RPMI-8226 leukemia) of the same compound?
**A.** 9.5 µM

**Q.** And the TGI (RXF 393 renal)?
**A.** 26.3 µM

**Q.** What about the TGI (SF-268 CNS) of the same compound?
**A.** 31.6 µM

**Q.** And the TGI (SF-295 CNS)?
**A.** 31.5 µM

**Q.** And the TGI (SF-539 CNS)?
**A.** 17.8 µM

**Q.** And the TGI (SK-MEL-2 melanoma)?
**A.** 29.7 µM

**Q.** What about the TGI (SK-MEL-28 melanoma) of the same compound?
**A.** 31.6 µM

**Q.** And the TGI (SK-MEL-5 melanoma)?
**A.** 16 µM

**Q.** What about the TGI (SK-OV-3 ovarian) of the same compound?
**A.** 34.9 µM

**Q.** What about the TGI (SN12C renal) of the same compound?
**A.** 13.1 µM

**Q.** And the TGI (SNB-19 CNS)?
**A.** 46.9 µM

**Q.** What about the TGI (SNB-75 CNS) of the same compound?
**A.** 33 µM

**Q.** And the TGI (SR leukemia)?
**A.** > 65.9 µM

**Q.** And the TGI (SW-620 colon)?
**A.** 38.6 µM

**Q.** And the TGI (T-47D breast)?
**A.** 37.6 µM

**Q.** What about the TGI (TK-10 renal) of the same compound?
**A.** 19.5 µM

**Q.** What about the TGI (U251 CNS) of the same compound?
**A.** 25.9 µM

**Q.** And the TGI (UACC-257 melanoma)?
**A.** 26.7 µM

**Q.** What about the TGI (UACC-62 melanoma) of the same compound?
**A.** 28.3 µM

**Q.** And the TGI (UO-31 renal)?
**A.** 18.8 µM
